IC50 data for 28 compounds are collected here from US9580437B2, “Triazolopyrimidine compounds and uses thereof” (Novartis AG, priority 2014, dated 2017).

One assay has as its target EED (1-441)-His protein (Homo sapiens (Human), UniProt O75530). As to the kind of experiment: EED-H3K27Me3 peptide competition binding assay by AlphaScreen. The note with it: read-out: (a) IC50 EED Alphascreen binding Qualified. From the text: EED-H3K27Me3 peptide competition binding assay by AlphaScreen (α-screen)
A general note: Alpha assays give light when donor and acceptor beads are brought close together.

In assay [1] the target is wild type PRC2 (wtPRC2) complex (Homo sapiens (Human), UniProt O75530). Kind of assay: EED LC-MS assay. The class given is biochemical. As to conditions: read-out: (b) IC50 EED LC-MS Qualified. How it is done:
A 6 μL solution of 3 μM of the peptide substrate H3K27Me0 (histone H3[21-44]-biotin) in reaction buffer was added to initiate each reaction. […] ELISA (H3K27 Methylation) Assay

Sequence of wild type PRC2 (wtPRC2) complex (O75530 whole entry): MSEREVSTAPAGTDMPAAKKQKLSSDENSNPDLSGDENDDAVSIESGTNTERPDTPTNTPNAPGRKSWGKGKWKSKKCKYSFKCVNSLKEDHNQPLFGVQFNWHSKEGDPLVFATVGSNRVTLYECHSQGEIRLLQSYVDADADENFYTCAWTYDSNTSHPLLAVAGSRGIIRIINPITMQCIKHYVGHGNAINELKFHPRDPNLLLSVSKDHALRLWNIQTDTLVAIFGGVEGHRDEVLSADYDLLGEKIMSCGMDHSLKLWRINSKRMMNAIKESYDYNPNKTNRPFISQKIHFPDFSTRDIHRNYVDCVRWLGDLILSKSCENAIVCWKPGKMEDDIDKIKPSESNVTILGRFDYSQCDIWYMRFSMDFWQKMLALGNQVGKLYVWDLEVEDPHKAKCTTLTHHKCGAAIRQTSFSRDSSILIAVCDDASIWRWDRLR
Sequence of wild type PRC2 (wtPRC2) complex (Q15910 whole entry partner): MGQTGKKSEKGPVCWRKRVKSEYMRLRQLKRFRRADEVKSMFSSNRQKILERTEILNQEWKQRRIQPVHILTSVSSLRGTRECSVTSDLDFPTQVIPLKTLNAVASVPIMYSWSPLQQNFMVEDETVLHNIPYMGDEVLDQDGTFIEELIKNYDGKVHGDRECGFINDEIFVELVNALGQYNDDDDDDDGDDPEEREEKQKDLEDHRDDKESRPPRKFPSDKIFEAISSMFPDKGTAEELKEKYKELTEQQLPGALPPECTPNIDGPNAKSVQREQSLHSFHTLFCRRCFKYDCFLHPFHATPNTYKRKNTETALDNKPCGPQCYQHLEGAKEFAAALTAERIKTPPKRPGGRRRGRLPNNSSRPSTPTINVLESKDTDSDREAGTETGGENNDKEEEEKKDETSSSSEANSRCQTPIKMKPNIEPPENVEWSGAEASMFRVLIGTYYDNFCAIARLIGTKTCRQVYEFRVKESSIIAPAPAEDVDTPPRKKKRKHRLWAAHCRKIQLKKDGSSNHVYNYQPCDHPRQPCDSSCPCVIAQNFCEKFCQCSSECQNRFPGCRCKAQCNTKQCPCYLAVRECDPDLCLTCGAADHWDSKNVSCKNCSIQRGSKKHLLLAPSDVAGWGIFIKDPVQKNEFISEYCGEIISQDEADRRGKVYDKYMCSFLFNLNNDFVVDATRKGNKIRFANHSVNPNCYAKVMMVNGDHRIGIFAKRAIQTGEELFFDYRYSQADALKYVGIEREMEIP
Sequence of wild type PRC2 (wtPRC2) complex (Q15022 whole entry partner): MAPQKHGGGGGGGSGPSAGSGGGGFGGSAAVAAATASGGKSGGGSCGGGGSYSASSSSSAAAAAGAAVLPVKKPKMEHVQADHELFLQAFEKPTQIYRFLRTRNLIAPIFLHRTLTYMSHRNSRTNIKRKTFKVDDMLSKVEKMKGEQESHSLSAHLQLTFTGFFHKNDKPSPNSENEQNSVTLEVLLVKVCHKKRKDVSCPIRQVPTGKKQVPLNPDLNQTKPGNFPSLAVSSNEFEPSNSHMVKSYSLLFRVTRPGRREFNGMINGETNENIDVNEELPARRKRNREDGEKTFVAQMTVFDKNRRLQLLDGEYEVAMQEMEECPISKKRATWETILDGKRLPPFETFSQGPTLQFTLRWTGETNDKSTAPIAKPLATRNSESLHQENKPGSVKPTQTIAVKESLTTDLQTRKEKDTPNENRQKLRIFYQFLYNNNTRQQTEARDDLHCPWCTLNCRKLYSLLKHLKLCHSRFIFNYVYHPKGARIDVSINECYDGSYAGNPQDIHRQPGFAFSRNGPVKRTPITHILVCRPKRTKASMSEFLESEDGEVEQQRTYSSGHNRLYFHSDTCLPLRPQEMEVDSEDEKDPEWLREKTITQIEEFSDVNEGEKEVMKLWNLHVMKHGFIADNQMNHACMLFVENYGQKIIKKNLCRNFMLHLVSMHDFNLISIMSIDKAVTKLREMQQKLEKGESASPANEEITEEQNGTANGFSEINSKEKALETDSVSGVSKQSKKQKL
Sequence of EED (1-441)-His protein (O75530 whole entry): as the sequence (O75530 whole entry) above

As to `CN(C)c1ncc(-c2cnc(NCc3cccc4c3CCO4)n3cnnc23)cn1` [Example 88, N-((2,3-dihydrobenzofuran-4-yl)methyl)-8-(2-(dimethylamino)pyrimidin-5-yl)-[1,2,4]triazolo[4,3-c]pyrimidin-5-amine], the 50% inhibitory concentration (IC50) on EED (1-441)-His protein stood at 25.7 nM; in assay [1], 34.7 nM.

Take `CN(C)CCc1cccc(-c2cnc(NCc3cccc4c3CCO4)n3cnnc23)c1` [Example 89, N-((2,3-dihydrobenzofuran-4-yl)methyl)-8-(3-(2-(dimethylamino)ethyl)phenyl)-[1,2,4]triazolo[4,3-c]pyrimidin-5-amine]: the IC50 on EED (1-441)-His protein came to 4.5 nM; in assay [1] it was 10.3 nM.

Take `CC1(C)COC(c2cncc(-c3cnc(NCc4cccc5c4CCO5)n4cnnc34)c2)=N1` [Example 90, N-((2,3-dihydrobenzofuran-4-yl)methyl)-8-(5-(4,4-dimethyl-4,5-dihydrooxazol-2-yl)pyridin-3-yl)-[1,2,4]triazolo[4,3-c]pyrimidin-5-amine]: the figures for the IC50 (at EED (1-441)-His protein; in assay [1]) were 13.1 nM and 30.3 nM, respectively.

Regarding `Fc1ccc2c(c1CNc1ncc(-c3ccc(N4CCSCC4)nc3)c3nncn13)CCO2` [Example 91, N-((5-fluoro-2,3-dihydrobenzofuran-4-yl)methyl)-8-(6-thiomorpholinopyridin-3-yl)-[1,2,4]triazolo[4,3-c]pyrimidin-5-amine], the concentration for half-maximal inhibition (IC50) at EED (1-441)-His protein amounted to 9.9 nM; in assay [1], 15.3 nM.

For the compound `Fc1ccc2c(c1CNc1ncc(-c3ccc(N4CCOCC4)nc3)c3nncn13)CCO2` [Example 92, N-((5-fluoro-2,3-dihydrobenzofuran-4-yl)methyl)-8-(6-morpholinopyridin-3-yl)-[1,2,4]triazolo[4,3-c]pyrimidin-5-amine], the values for the IC50 (on EED (1-441)-His protein; in assay [1]) were 19.2 nM and 51.5 nM, respectively.

As for `N#Cc1ccc(-c2cnc(NCc3c(F)ccc4c3CCO4)n3cnnc23)cn1` [Example 93, 5-(5-(((5-fluoro-2,3-dihydrobenzofuran-4-yl)methyl)amino)-[1,2,4]triazolo[4,3-c]pyrimidin-8-yl)picolinonitrile], the half-maximal inhibitory concentration (IC50) came out at 7.9 nM at EED (1-441)-His protein and 12.5 nM in assay [1].

With `Fc1ccccc1-c1cnc(NCc2c(F)ccc3c2CCO3)n2cnnc12` [Example 94, N-((5-fluoro-2,3-dihydrobenzofuran-4-yl)methyl)-8-(2-fluorophenyl)-[1,2,4]triazolo[4,3-c]pyrimidin-5-amine], the concentration for half-maximal inhibition (IC50) at EED (1-441)-His protein was found to be 11.3 nM; in assay [1] it was 18.6 nM.

Take `CN(C)C(=O)c1ccc(-c2cnc(NCc3cccc4c3CCO4)n3cnnc23)cn1` [Example 95, 5-(5-(((2,3-dihydrobenzofuran-4-yl)methyl)amino)-[1,2,4]triazolo[4,3-c]pyrimidin-8-yl)-N,N-dimethylpicolinamide]: the IC50 was 5.2 nM at EED (1-441)-His protein and 12.8 nM in assay [1].

Consider `CC1CCCN1c1ccc(-c2cnc(NCc3cccc4c3CCO4)n3cnnc23)cn1` (centres unmarked) [Example 96, N-((2,3-dihydrobenzofuran-4-yl)methyl)-8-(6-(2-methylpyrrolidin-1-yl)pyridin-3-yl)-[1,2,4]triazolo[4,3-c]pyrimidin-5-amine], for which the values for the half-inhibitory concentration (IC50) (on EED (1-441)-His protein; in assay [1]) were 26 nM and 13.2 nM, respectively.

`COC(=O)N1CCN(c2ccc(-c3cnc(NCc4cccc5c4CCO5)n4cnnc34)cn2)CC1` [Example 97, methyl 4-(5-(5-(((2,3-dihydrobenzofuran-4-yl)methyl)amino)-[1,2,4]triazolo[4,3-c]pyrimidin-8-yl)pyridin-2-yl)piperazine-1-carboxylate]: the 50% inhibitory concentration (IC50) at EED (1-441)-His protein came out at 6.1 nM; in assay [1], 8.6 nM.

For `CS(=O)(=O)CCCOc1cncc(-c2cnc(NCc3cccc4c3CCO4)n3cnnc23)c1` [Example 98, N-((2,3-dihydrobenzofuran-4-yl)methyl)-8-(5-(3-(methylsulfonyl)propoxy)pyridin-3-yl)-[1,2,4]triazolo[4,3-c]pyrimidin-5-amine], the 50% inhibitory concentration (IC50) is 21.7 nM at EED (1-441)-His protein and 35.6 nM in assay [1].

With `CC(C)(O)c1ccc(-c2cnc(NCc3cccc4c3CCO4)n3cnnc23)cn1` [Example 99, 2-(5-(5-(((2,3-dihydrobenzofuran-4-yl)methyl)amino)-[1,2,4]triazolo[4,3-c]pyrimidin-8-yl)pyridin-2-yl)propan-2-ol], the IC50 at EED (1-441)-His protein came out at 4.2 nM; in assay [1], 6.7 nM.

With `FC1(F)CCN(CCc2ccc(-c3cnc(NCc4cccc5c4CCO5)n4cnnc34)cn2)C1` [Example 100, 8-(6-(2-(3,3-difluoropyrrolidin-1-yl)ethyl)pyridin-3-yl)-N-((2,3-dihydrobenzofuran-4-yl)methyl)-[1,2,4]triazolo[4,3-c]pyrimidin-5-amine], the IC50 on EED (1-441)-His protein is 14 nM; in assay [1], 31.5 nM.

For `CC1(C)COC(c2ccc(-c3cnc(NCc4cccc5c4CCO5)n4cnnc34)cn2)=N1` [Example 101, N-((2,3-dihydrobenzofuran-4-yl)methyl)-8-(6-(4,4-dimethyl-4,5-dihydrooxazol-2-yl)pyridin-3-yl)-[1,2,4]triazolo[4,3-c]pyrimidin-5-amine], the IC50 at EED (1-441)-His protein was 11.7 nM; in assay [1] it was 13.6 nM.

Consider `CN(C)CCN(C)C(=O)c1ccc(-c2cnc(NCc3cccc4c3CCO4)n3cnnc23)cn1` [Example 102], for which the concentration for half-maximal inhibition (IC50) stood at 33.9 nM at EED (1-441)-His protein and 68.8 nM in assay [1].

Turning to `Cc1cc(-c2cnc(NCc3cccc4c3CCO4)n3cnnc23)cnc1N1CCCC1` [Example 103, N-((2,3-dihydrobenzofuran-4-yl)methyl)-8-(5-methyl-6-(pyrrolidin-1-yl)pyridin-3-yl)-[1,2,4]triazolo[4,3-c]pyrimidin-5-amine], the figures for the IC50 (at EED (1-441)-His protein; in assay [1]) were 728 nM and 431 nM, respectively.

For the compound `O=C1CN(c2ccc(-c3cnc(NCc4cccc5c4CCO5)n4cnnc34)cn2)CCN1` [Example 104, 4-(5-(5-(((2,3-dihydrobenzofuran-4-yl)methyl)amino)-[1,2,4]triazolo[4,3-c]pyrimidin-8-yl)pyridin-2-yl)piperazin-2-one], the IC50 came out at 9.6 nM at EED (1-441)-His protein and 12 nM in assay [1].

For `Cc1cc(-c2cnc(NCc3cccc4c3CCO4)n3cnnc23)cnc1N1CCNC(=O)C1` [Example 105, 4-(5-(5-(((2,3-dihydrobenzofuran-4-yl)methyl)amino)-[1,2,4]triazolo[4,3-c]pyrimidin-8-yl)-3-methylpyridin-2-yl)piperazin-2-one], the half-inhibitory concentration (IC50) was determined as 26.9 nM on EED (1-441)-His protein and 32.6 nM in assay [1].

For `CS(=O)(=O)CCOc1cncc(-c2cnc(NCc3cccc4c3CCO4)n3cnnc23)c1` [Example 106, N-((2,3-dihydrobenzofuran-4-yl)methyl)-8-(5-(2-(methylsulfonyl)ethoxy)pyridin-3-yl)-[1,2,4]triazolo[4,3-c]pyrimidin-5-amine], the values for the IC50 (on EED (1-441)-His protein; in assay [1]) were 25 nM and 34.1 nM, respectively.

On to `O=CN1CCN(CCc2ccc(-c3cnc(NCc4cccc5c4CCO5)n4cnnc34)cn2)CC1` [Example 107, 4-(2-(5-(5-(((2,3-dihydrobenzofuran-4-yl)methyl)amino)-[1,2,4]triazolo[4,3-c]pyrimidin-8-yl)pyridin-2-yl)ethyl)piperazine-1-carbaldehyde], for which the IC50 on EED (1-441)-His protein turned out to be 12.4 nM; in assay [1], 25 nM.

On to `CC(=O)N1CCN(CCc2ccc(-c3cnc(NCc4cccc5c4CCO5)n4cnnc34)cn2)CC1` [Example 108, 1-(4-(2-(5-(5-(((2,3-dihydrobenzofuran-4-yl)methyl)amino)-[1,2,4]triazolo[4,3-c]pyrimidin-8-yl)pyridin-2-yl)ethyl)piperazin-1-yl)ethanone], for which the IC50 at EED (1-441)-His protein was 6.7 nM; in assay [1] it was 11 nM.

For the compound `O=C1CN(CCc2ccc(-c3cnc(NCc4cccc5c4CCO5)n4cnnc34)cn2)CCN1` [Example 109, 4-(2-(5-(5-(((2,3-dihydrobenzofuran-4-yl)methyl)amino)-[1,2,4]triazolo[4,3-c]pyrimidin-8-yl)pyridin-2-yl)ethyl)piperazin-2-one], the results for the IC50 (on EED (1-441)-His protein; in assay [1]) were 8.8 nM and 13.7 nM, respectively.

`OCCN1CCN(c2ccc(-c3cnc(NCc4cccc5c4CCO5)n4cnnc34)cn2)CC1` [Example 110, 2-(4-(5-(5-(((2,3-dihydrobenzofuran-4-yl)methyl)amino)-[1,2,4]triazolo[4,3-c]pyrimidin-8-yl)pyridin-2-yl)piperazin-1-yl)ethanol]: the figures for the concentration for half-maximal inhibition (IC50) (at EED (1-441)-His protein; in assay [1]) were 9.3 nM and 15.2 nM, respectively.

For `CNc1cc(F)c(-c2cnc(NCc3cccc4c3CCO4)n3cnnc23)cn1` [Example 111, N-((2,3-dihydrobenzofuran-4-yl)methyl)-8-(4-fluoro-6-(methylamino)pyridin-3-yl)-[1,2,4]triazolo[4,3-c]pyrimidin-5-amine], the IC50 on EED (1-441)-His protein worked out at 19 nM; in assay [1] it was 17.4 nM.

With `CN(C)c1cc(F)c(-c2cnc(NCc3cccc4c3CCO4)n3cnnc23)cn1` [Example 112, N-((2,3-dihydrobenzofuran-4-yl)methyl)-8-(6-(dimethylamino)-4-fluoropyridin-3-yl)-[1,2,4]triazolo[4,3-c]pyrimidin-5-amine], the IC50 on EED (1-441)-His protein worked out at 17.7 nM; in assay [1], 17.6 nM.

On to `O=CN1CCCN(c2ccc(-c3cnc(NCc4cccc5c4CCO5)n4cnnc34)cn2)CC1` [Example 113, 4-(5-(5-(((2,3-dihydrobenzofuran-4-yl)methyl)amino)-[1,2,4]triazolo[4,3-c]pyrimidin-8-yl)pyridin-2-yl)-1,4-diazepane-1-carbaldehyde], for which the 50% inhibitory concentration (IC50) at EED (1-441)-His protein was found to be 12.7 nM; in assay [1], 15.7 nM.

Regarding `CCNC(=O)c1ccc(-c2cnc(NCc3cccc4c3CCO4)n3cnnc23)cn1` [Example 114, 5-(5-(((2,3-dihydrobenzofuran-4-yl)methyl)amino)-[1,2,4]triazolo[4,3-c]pyrimidin-8-yl)-N-ethylpicolinamide], the results for the IC50 (at EED (1-441)-His protein; in assay [1]) were 15.4 nM and 18.6 nM, respectively.

Take `Fc1ccc2c(c1CNc1ncc(-c3cccnc3F)c3nncn13)CCO2` [Example 115, N-((5-fluoro-2,3-dihydrobenzofuran-4-yl)methyl)-8-(2-fluoropyridin-3-yl)-[1,2,4]triazolo[4,3-c]pyrimidin-5-amine]: the figures for the IC50 (at EED (1-441)-His protein; in assay [1]) were 4.7 nM and 6.9 nM, respectively.

As a reminder, the IC50 is the concentration that gives 50% inhibition.
